{
  "source": "patent EP1790727A2",
  "about": "“Proteins and nucleic acids encoding same” (Curagen Corporation, priority 2000, dated 2002)",
  "origin": "cited, not measured here",
  "key": {"[1]": {"tested_on": "neutrophil", "settings": "in vitro"}, "[2]": {"settings": "in vivo, mouse paw"}, "[3]": {"molecular_target": "MgATP-actin (Homo sapiens, UniProt P68133)", "settings": "but not CaATP-actin"}, "[4]": {"tested_on": "keratinocyte", "settings": "after 4-5 h; as little as 10 pg of Tbeta4"}, "[5]": {"settings": "for increased reepithelialization over saline controls: topically or intraperitoneally"}},
  "note": "Where two headings read alike, the source gives them in different places.",
  "data": [
    {"substance": "thymosin beta4 sulfoxide", "values": [
      {"measurement": "neutrophil chemotaxis", "setting": "[1]", "value": "inhibited"},
      {"measurement": "carrageenin-induced edema", "setting": "[2]", "value": "potent inhibitor"}
    ]},
    {"substance": "thymosin beta4 [Tbeta4]", "values": [
      {"measurement": "proteolysis at Gly(46) on subdomain 2, faster when Tbeta(4) is bound", "setting": "[3]", "value": "> 12", "unit": "times"},
      {"measurement": "carrageenin-induced edema", "setting": "[2]", "value": "not"},
      {"measurement": "migration stimulated over migration with medium alone", "setting": "[4]", "value": "2-3 fold"},
      {"measurement": "wound contraction more than controls", "setting": "[5]; by day 7", "value": "at least 11%"},
      {"measurement": "collagen deposition and angiogenesis in the treated wounds", "setting": "[5]; rat, in vivo", "value": "Increased"},
      {"measurement": "increased reepithelialization over saline controls", "setting": "[5]; at 4 d", "value": 42, "unit": "%"},
      {"measurement": "increased reepithelialization over saline controls", "setting": "[5]; at 7 d post-wounding", "value": "≤ 61", "unit": "%"}
    ]}
  ]
}
